Values quoted from earlier work in patent publication US12295956B2, “Anti-viral compositions” (Calladine Pharmaceuticals Limited, priority 2018, dated 2025).

Columns and labels:
[1] = gentle heating to a pourable hot liquid

- solubility in hydrophobic solvent systems (hydrophobic solvent systems): almost totally insoluble
- solubility in water (water): poor solubility in water
- heat stability [1]: relatively heat stable
Compound: Nc1nc2c(ncn2COCCO)c(=O)[nH]1 [Aciclovir, aciclovir]
